Values after ≈ are worked out from the molar mass of the structure shown.
Assays:
Assay type in all cases: functional
Streptococcus pyogenes [1] = test: Selectivity ratio of MBC for Streptococcus pyogenes 01-968 harboring i-ermB gene to MIC for Streptococcus pyogenes 01-968 harboring i-ermB gene
Haemophilus influenzae [2] = test: Selectivity ratio of MBC for Haemophilus influenzae ATCC 49247 to MIC for Haemophilus influenzae ATCC 49247
Streptococcus pneumoniae [3] = test: Bactericidal activity against Streptococcus pneumoniae 07P390 harboring c-erm gene incubated for 16 to 20 hrs by CLSI based broth microdilution method; conditions: time 16-20 hrs
Streptococcus pneumoniae [4] = test: Antibacterial activity against Streptococcus pneumoniae 07P390 harboring c-erm gene incubated for 16 to 20 hrs by CLSI based broth microdilution method; conditions: time 16-20 hrs
Streptococcus pneumoniae [5] = test: Selectivity ratio of MBC for Streptococcus pneumoniae PU 09 harboring mef gene to MIC for Streptococcus pneumoniae PU 09 harboring mef gene
Streptococcus pneumoniae [6] = test: Selectivity ratio of MBC for Streptococcus pneumoniae ATCC 49619 to MIC for Streptococcus pneumoniae ATCC 49619
Staphylococcus aureus [7] = test: Selectivity ratio of MBC for methicillin-resistant Staphylococcus aureus PU 32 harboring i-ermA gene to MIC for methicillin-resistant Staphylococcus aureus PU 32 harboring i-ermA gene
Staphylococcus aureus [8] = test: Bactericidal activity against methicillin-resistant Staphylococcus aureus PU 20 harboring c-ermA gene incubated for 16 to 20 hrs by CLSI based broth microdilution method; conditions: time 16-20 hrs
Staphylococcus aureus [9] = test: Antibacterial activity against methicillin-resistant Staphylococcus aureus PU 20 harboring c-ermA gene incubated for 16 to 20 hrs by CLSI based broth microdilution method; conditions: time 16-20 hrs
Staphylococcus aureus [10] = test: Bactericidal activity against methicillin-resistant Staphylococcus aureus PU 32 harboring i-ermA gene incubated for 16 to 20 hrs by CLSI based broth microdilution method; conditions: time 16-20 hrs
Staphylococcus aureus [11] = test: Antibacterial activity against methicillin-resistant Staphylococcus aureus PU 32 harboring i-ermA gene incubated for 16 to 20 hrs by CLSI based broth microdilution method; conditions: time 16-20 hrs
Streptococcus pyogenes [12] = test: Bactericidal activity against Streptococcus pyogenes 01-968 harboring i-ermB gene incubated for 16 to 20 hrs by CLSI based broth microdilution method; conditions: time 16-20 hrs
Streptococcus pyogenes [13] = test: Antibacterial activity against Streptococcus pyogenes 01-968 harboring i-ermB gene incubated for 16 to 20 hrs by CLSI based broth microdilution method; conditions: time 16-20 hrs
Haemophilus influenzae [14] = test: Antibacterial activity against Haemophilus influenzae ATCC 49247 incubated for 16 to 20 hrs by CLSI based broth microdilution method; conditions: time 16-20 hrs
Streptococcus pneumoniae [15] = test: Bactericidal activity against Streptococcus pneumoniae PU 09 harboring mef gene incubated for 16 to 20 hrs by CLSI based broth microdilution method; conditions: time 16-20 hrs
Streptococcus pneumoniae [16] = test: Antibacterial activity against Streptococcus pneumoniae PU 09 harboring mef gene incubated for 16 to 20 hrs by CLSI based broth microdilution method; conditions: time 16-20 hrs
Streptococcus pneumoniae [17] = test: Bactericidal activity against Streptococcus pneumoniae ATCC 49619 incubated for 16 to 20 hrs by CLSI based broth microdilution method; conditions: time 16-20 hrs
Streptococcus pneumoniae [18] = test: Antibacterial activity against Streptococcus pneumoniae ATCC 49619 incubated for 16 to 20 hrs by CLSI based broth microdilution method; conditions: time 16-20 hrs
Haemophilus influenzae [19] = test: Bactericidal activity against Haemophilus influenzae ATCC 49247 incubated for 16 to 20 hrs by CLSI based broth microdilution method; conditions: time 16-20 hrs

| SMILES | Selectivity ratio (Streptococcus pyogenes [1]) | Selectivity ratio (Haemophilus influenzae [2]) | MBC (Streptococcus pneumoniae [3]) | MIC (Streptococcus pneumoniae [4]) | Selectivity ratio (Streptococcus pneumoniae [5]) | Selectivity ratio (Streptococcus pneumoniae [6]) | Selectivity ratio (Staphylococcus aureus [7]) | MBC (Staphylococcus aureus [8]) | MIC (Staphylococcus aureus [9]) | MBC (Staphylococcus aureus [10]) | MIC (Staphylococcus aureus [11]) | MBC (Streptococcus pyogenes [12]) | MIC (Streptococcus pyogenes [13]) | MIC (Haemophilus influenzae [14]) | MBC (Streptococcus pneumoniae [15]) | MIC (Streptococcus pneumoniae [16]) | MBC (Streptococcus pneumoniae [17]) | MIC (Streptococcus pneumoniae [18]) | MBC (Haemophilus influenzae [19]) |
| --- | --- | --- | --- | --- | --- | --- | --- | --- | --- | --- | --- | --- | --- | --- | --- | --- | --- | --- | --- |
| CC[C@H]1OC(=O)[C@H](C)[C@@H](OC(=O)CCNCCCc2ccc3c(c2)c(=O)c(C(=O)O)cn3C2CC2)[C@H](C)[C@@H](O[C@@H]2O[C@H](C)C[C@H](N(C)C)[C@H]2O)[C@](C)(OC)C[C@@H](C)/C(=N\OC)[C@H](C)[C@H]2OC(=O)O[C@@]21C | 1 | 2 | > 32 µg/mL | 16 µg/mL (≈ 16.2 µM) | 1 | 2 |  |  |  |  |  |  |  |  |  |  |  |  |  |
| CC[C@H]1OC(=O)[C@H](C)[C@@H](OC(=O)NCCCc2ccc3c(c2)c(=O)c(C(=O)O)cn3C2CC2)[C@H](C)[C@@H](O[C@@H]2O[C@H](C)C[C@H](N(C)C)[C@H]2O)[C@](C)(OC)C[C@@H](C)/C(=N\OC)[C@H](C)[C@H]2OC(=O)O[C@@]21C | 2 | 1 |  | > 32 µg/mL | 4 | 2 | >8 |  |  |  |  |  |  |  |  |  |  |  |  |
| CC[C@H]1OC(=O)[C@H](C)[C@@H](OC(=O)CCNCCCCCCCCNc2cc3c(=O)c(C(=O)O)cn(C4CC4)c3cc2Cl)[C@H](C)[C@@H](O[C@@H]2O[C@H](C)C[C@H](N(C)C)[C@H]2O)[C@](C)(OC)C[C@@H](C)/C(=N\OC)[C@H](C)[C@H]2OC(=O)O[C@@]21C | >8 |  |  | > 32 µg/mL | 1 | 1 |  | > 256 µg/mL | 128 µg/mL (≈ 116 µM) | > 256 µg/mL | 128 µg/mL (≈ 116 µM) | > 32 µg/mL | 4 µg/mL (≈ 3.62 µM) | > 256 µg/mL | 16 µg/mL (≈ 14.5 µM) | 16 µg/mL (≈ 14.5 µM) | 2 µg/mL (≈ 1.81 µM) | 2 µg/mL (≈ 1.81 µM) |  |
| CC[C@H]1OC(=O)[C@H](C)[C@@H](OC(=O)CCN2CCN(c3cc4c(cc3F)c(=O)c(C(=O)O)cn4C3CC3)CC2)[C@H](C)[C@@H](O[C@@H]2O[C@H](C)C[C@H](N(C)C)[C@H]2O)[C@](C)(OC)C[C@@H](C)/C(=N\OCC#Cc2cncc3ccccc23)[C@H](C)[C@H]2OC(=O)O[C@@]21C | 2 | 1 |  | > 32 µg/mL | 2 | 1 |  |  | > 256 µg/mL |  | > 256 µg/mL | 64 µg/mL (≈ 54.2 µM) | 32 µg/mL (≈ 27.1 µM) | 1 µg/mL (≈ 0.846 µM) | 32 µg/mL (≈ 27.1 µM) | 16 µg/mL (≈ 13.5 µM) | 4 µg/mL (≈ 3.39 µM) | 4 µg/mL (≈ 3.39 µM) | 1 µg/mL (≈ 0.846 µM) |
| CC[C@H]1OC(=O)[C@H](C)[C@@H](O[C@H]2C[C@@](C)(OC)[C@@H](O)[C@H](C)O2)[C@H](C)[C@@H](O[C@@H]2O[C@H](C)C[C@H](N(C)C)[C@H]2O)[C@](C)(OC)C[C@@H](C)C(=O)[C@H](C)[C@@H](O)[C@]1(C)O [CLARITHROMYCIN] | >8 | 2 |  | > 32 µg/mL | 8 | 4 | >8 |  | > 256 µg/mL |  |  | > 64 µg/mL | 8 µg/mL (≈ 10.7 µM) |  | 32 µg/mL (≈ 42.8 µM) |  | 0.25 µg/mL (≈ 0.334 µM) | 0.062 µg/mL (≈ 0.0829 µM) |  |
| C#CCO/N=C1\[C@H](C)C[C@@](C)(OC)[C@H](O[C@@H]2O[C@H](C)C[C@H](N(C)C)[C@H]2O)[C@@H](C)[C@H](OC(=O)CCN2CCN(c3cc4c(cc3F)c(=O)c(C(=O)O)cn4C3CC3)CC2)[C@@H](C)C(=O)O[C@H](CC)[C@@]2(C)OC(=O)O[C@@H]2[C@H]1C | 2 | 1 | > 32 µg/mL | 32 µg/mL (≈ 30.4 µM) | 2 | 1 | >4 | > 256 µg/mL | 256 µg/mL (≈ 243 µM) | > 256 µg/mL | 64 µg/mL (≈ 60.7 µM) | 8 µg/mL (≈ 7.59 µM) | 4 µg/mL (≈ 3.79 µM) | 1 µg/mL (≈ 0.949 µM) | 2 µg/mL (≈ 1.9 µM) | 1 µg/mL (≈ 0.949 µM) | 0.5 µg/mL (≈ 0.474 µM) | 0.5 µg/mL (≈ 0.474 µM) | 1 µg/mL (≈ 0.949 µM) |
| CC[C@H]1OC(=O)[C@H](C)[C@@H](OC(=O)CCN2CCN(c3cc4c(cc3F)c(=O)c(C(N)=O)cn4C3CC3)CC2)[C@H](C)[C@@H](O[C@@H]2O[C@H](C)C[C@H](N(C)C)[C@H]2O)[C@](C)(OC)C[C@@H](C)/C(=N\OCC#Cc2cncc(C(=O)NC)c2)[C@H](C)[C@H]2OC(=O)O[C@@]21C | >8 |  | > 256 µg/mL | 256 µg/mL (≈ 216 µM) | 4 | 4 |  | > 256 µg/mL | > 256 µg/mL | > 256 µg/mL | 256 µg/mL (≈ 216 µM) | > 256 µg/mL | 32 µg/mL (≈ 27 µM) | > 256 µg/mL | 4 µg/mL (≈ 3.37 µM) | 1 µg/mL (≈ 0.842 µM) | 1 µg/mL (≈ 0.842 µM) | 0.25 µg/mL (≈ 0.211 µM) | > 256 µg/mL |
| CC[C@H]1OC(=O)[C@H](C)[C@@H](OC(=O)CCN2CCN(c3cc4c(cc3F)c(=O)c(C(=O)O)cn4C3CC3)CC2)[C@H](C)[C@@H](O[C@@H]2O[C@H](C)C[C@H](N(C)C)[C@H]2O)[C@](C)(OC)C[C@@H](C)/C(=N\OC)[C@H](C)[C@H]2OC(=O)O[C@@]21C | 8 | 2 |  | > 32 µg/mL | 4 | 1 | >4 | > 256 µg/mL | 256 µg/mL (≈ 248 µM) | > 256 µg/mL | 64 µg/mL (≈ 62.1 µM) | 8 µg/mL (≈ 7.77 µM) | 1 µg/mL (≈ 0.971 µM) | 1 µg/mL (≈ 0.971 µM) | 2 µg/mL (≈ 1.94 µM) | 0.5 µg/mL (≈ 0.485 µM) | 0.25 µg/mL (≈ 0.243 µM) | 0.25 µg/mL (≈ 0.243 µM) | 2 µg/mL (≈ 1.94 µM) |
| CC[C@H]1OC(=O)[C@H](C)[C@@H](OC(=O)CCNCCNc2cc3c(=O)c(C(=O)O)cn(C4CC4)c3cc2Cl)[C@H](C)[C@@H](O[C@@H]2O[C@H](C)C[C@H](N(C)C)[C@H]2O)[C@](C)(OC)C[C@@H](C)/C(=N\OC)[C@H](C)[C@H]2OC(=O)O[C@@]21C | 2 | 1 |  | > 32 µg/mL | 1 | 2 |  |  | > 256 µg/mL |  |  |  |  |  |  |  |  |  |  |

From ChEMBL document CHEMBL5608186, “Design, synthesis and structure-activity relationships of novel non-ketolides: 9-Oxime clarithromycin featured with seven-to thirteen-atom-length diamine linkers at 3-OH” (Eur J Med Chem, 2024)
